Measured values as given in patent US20200138854A1, “Method of Detecting and Quantifying Bile Acid from Saliva” (Ironwood Pharmaceuticals, Inc., priority 2017, published 2020).
Where “and” joins values, the source holds several entries; their conditions need not be identical. Equal entries are not always repeated. Where two headings read alike, the source gives them in different places.

Tests used:
[1] = Frozen (−20° C.) short-term stability in cholestyramine-treated human saliva; conditions: for % Bias / Concentration, Mean / Concentration: −20° C.; for Concentration: individual values
Experimental: Quality control samples for the evaluation of accuracy and precision and for run acceptance were prepared on the day of sample extraction. QC samples prepared in cholestyramine-treated saliva are to be prepared in small volumes for analysis. Stability for these QC samples would be limited to short-term storage (i.e., 2 days) whereas untreated human saliva would be evaluated for long-term storage.
For stability in cholestyramine-treated human saliva, samples were prepared by spiking cholestyramine-treated human saliva with each analyte at the QC-LLOQ, QC-Low, QC-Mid and QC-High levels. The samples were stored in a −20° C. freezer. After 1 day and 2 days of storage, each sample was extracted in replicates of four for analysis.

[2] = Long-term (1 month at −20° C. and −80° C.) stability in untreated human saliva; conditions: for % Bias QC-High / % CV QC-High / Difference from Fresh (%) QC-High / Mean concentration QC-High / Concentration QC-High / Fresh QCs (Batch 34) Mean at Time Zero, QC-High: nominal 80.0 ng/mL
Experimental: For long-term stability in untreated human saliva, samples were prepared by spiking untreated human saliva with each analyte at the QC-Low and QC-High levels. The samples were stored in a −20° C. freezer and in a −80° C. freezer. After 1 month of storage, each sample was extracted in replicates of three for analysis.
A 100-μL aliquot of sample (calibration standards, quality controls, blanks, and stability samples) was transferred into a 96 well plate, according to a pre-defined layout. […] The plates were covered, vortex-mixed and then centrifuged for 5 minutes at 3200 rpm. Supernatants (350 μL each) were transferred into the corresponding wells of a clean 96 well plate and evaporated to dryness under nitrogen in a Turbovap set to 40° C. The dried residue in each well was reconstituted with 75 μL of 50:50 (v:v) methanol:water.

[3] = 1 Day at −20° C., nominal 0.500 ng/mL
[4] = 1 Day at −20° C., nominal 8.00 ng/mL
[5] = 1 Day at −20° C., nominal 80.0 ng/mL
[6] = 2 Days at −20° C., nominal 0.500 ng/mL
[7] = 2 Days at −20° C., nominal 8.00 ng/mL
[8] = 2 Days at −20° C., nominal 80.0 ng/mL
[9] = 1 month −20° C. storage, untreated human saliva
[10] = 1 month −20° C. storage, untreated human saliva, run 35
[11] = 1 month −80° C. storage, untreated human saliva
[12] = 1 month −80° C. storage, untreated human saliva, run 35
[13] = reference for −20° C. storage, untreated human saliva
[14] = reference for −80° C. storage, untreated human saliva
[15] = nominal 0.500 ng/mL, 1 Day at −20° C.
[16] = nominal 0.500 ng/mL, 2 Days at −20° C.
[17] = nominal 8.00 ng/mL, 1 Day at −20° C.
[18] = nominal 8.00 ng/mL, 2 Days at −20° C.
[19] = nominal 80.0 ng/mL, 1 Day at −20° C.
[20] = nominal 80.0 ng/mL, 2 Days at −20° C.
[21] = 1 Day, QC-High, nominal 80.0 ng/mL
[22] = 1 Day, QC-LLOQ, nominal 0.500 ng/mL
[23] = 1 Day, QC-Mid, nominal 8.00 ng/mL
[24] = 2 Days, QC-High, nominal 80.0 ng/mL
[25] = 2 Days, QC-LLOQ, nominal 0.500 ng/mL
[26] = 2 Days, QC-Mid, nominal 8.00 ng/mL

C[C@H](CCC(=O)NCCS(=O)(=O)O)[C@H]1CC[C@H]2[C@@H]3[C@H](O)C[C@@H]4C[C@H](O)CC[C@]4(C)[C@H]3C[C@H](O)[C@]12C [Taurocholic Acid, Taurocholic acid]
% Bias QC-LLOQ [1, 3]: −1.1% | % CV QC-LLOQ [1, 3]: 2.4% | Mean concentration QC-LLOQ [1, 3]: 0.495 ng/mL | Concentration QC-LLOQ ([1]; 1 Day at −20° C., nominal 0.500 ng/mL, run 33): 0.481 ng/mL and 0.509 ng/mL and 0.491 ng/mL and 0.498 ng/mL | % Bias QC-Mid [1, 4]: −8.4% | % CV QC-Mid [1, 4]: 1.9% | Mean concentration QC-Mid [1, 4]: 7.33 ng/mL | Concentration QC-Mid ([1]; 1 Day at −20° C., nominal 8.00 ng/mL, run 33): 7.32 ng/mL and 7.29 ng/mL and 7.51 ng/mL and 7.18 ng/mL | % Bias QC-High [1, 5]: −6.6% | % CV QC-High [1, 5]: 2.7% | Mean concentration QC-High [1, 5]: 74.7 ng/mL | Concentration QC-High ([1]; 1 Day at −20° C., nominal 80.0 ng/mL, run 33): 74.9 ng/mL and 77.2 ng/mL and 72.3 ng/mL and 74.5 ng/mL | % Bias QC-LLOQ [1, 6]: 11.2% | % CV QC-LLOQ [1, 6]: 4.1% | Mean concentration QC-LLOQ [1, 6]: 0.556 ng/mL | Concentration QC-LLOQ ([1]; 2 Days at −20° C., nominal 0.500 ng/mL, run 33): 0.538 ng/mL and 0.563 ng/mL and 0.537 ng/mL and 0.585 ng/mL | % Bias QC-Mid [1, 7]: −6.7% | % CV QC-Mid [1, 7]: 4.8% | Mean concentration QC-Mid [1, 7]: 7.46 ng/mL | Concentration QC-Mid ([1]; 2 Days at −20° C., nominal 8.00 ng/mL, run 33): 6.98 ng/mL and 7.47 ng/mL and 7.55 ng/mL and 7.85 ng/mL | % Bias QC-High [1, 8]: −6.7% | % CV QC-High [1, 8]: 2.1% | Mean concentration QC-High [1, 8]: 74.7 ng/mL | Concentration QC-High ([1]; 2 Days at −20° C., nominal 80.0 ng/mL, run 33): 73.1 ng/mL and 75.1 ng/mL and 73.8 ng/mL and 76.6 ng/mL | Short-term stability in cholestyramine-treated human saliva ([1]; at −20° C.): up to 2 days | Stability in Treated Human Saliva ([1]; at −20° C., cholestyramine-treated human saliva): 2 days | % Bias QC-High [2, 9]: −2.9% | % CV QC-High [2, 9]: 3.0% | Difference from Fresh (%) QC-High [2, 9]: −4.5% | Mean concentration QC-High [2, 9]: 77.7 ng/mL | Concentration QC-High [2, 10]: 75.1 ng/mL and 78.3 ng/mL and 79.7 ng/mL | % Bias QC-High [2, 11]: −2.3% | % CV QC-High [2, 11]: 3.7% | Difference from Fresh (%) QC-High [2, 11]: −4.0% | Mean concentration QC-High [2, 11]: 78.1 ng/mL | Concentration QC-High [2, 12]: 81.2 ng/mL and 77.8 ng/mL and 75.4 ng/mL | Fresh QCs (Batch 34) Mean at Time Zero, QC-High [2, 13]: 81.4 ng/mL | Fresh QCs (Batch 34) Mean at Time Zero, QC-High [2, 14]: 81.4 ng/mL

C[C@H](CCC(=O)NCCS(=O)(=O)O)[C@H]1CC[C@H]2[C@@H]3[C@H](O)C[C@@H]4C[C@H](O)CC[C@]4(C)[C@H]3CC[C@]12C [Taurochenodeoxycholic Acid, Taurochenodeoxycholic acid]
Short-term stability in cholestyramine-treated human saliva [1]: up to 2 days | Stability in Treated Human Saliva [1]: 2 days | % Bias QC-LLOQ [1, 15]: 7.1% | % CV QC-LLOQ [1, 15]: 2.2% | Concentration QC-LLOQ ([1]; nominal 0.500 ng/mL, 1 Day at −20° C., Run 33, cholestyramine-treated human saliva, replicate): 0.529 ng/mL and 0.542 ng/mL and 0.522 ng/mL and 0.548 ng/mL | Mean concentration QC-LLOQ ([1]; nominal 0.500 ng/mL, 1 Day at −20° C., n 4): 0.535 ng/mL | % Bias QC-LLOQ [1, 16]: 19.6% | % CV QC-LLOQ [1, 16]: 4.1% | Concentration QC-LLOQ ([1]; nominal 0.500 ng/mL, 2 Days at −20° C., Run 33, cholestyramine-treated human saliva, replicate): 0.608 ng/mL and 0.589 ng/mL and 0.569 ng/mL and 0.626 ng/mL | Mean concentration QC-LLOQ ([1]; nominal 0.500 ng/mL, 2 Days at −20° C., n 4): 0.598 ng/mL | % Bias QC-Mid [1, 17]: −5.4% | % CV QC-Mid [1, 17]: 0.9% | Concentration QC-Mid ([1]; nominal 8.00 ng/mL, 1 Day at −20° C., Run 33, cholestyramine-treated human saliva, replicate): 7.59 ng/mL and 7.63 ng/mL and 7.58 ng/mL and 7.47 ng/mL | Mean concentration QC-Mid ([1]; nominal 8.00 ng/mL, 1 Day at −20° C., n 4): 7.57 ng/mL | % Bias QC-Mid [1, 18]: −1.8% | % CV QC-Mid [1, 18]: 4.0% | Concentration QC-Mid ([1]; nominal 8.00 ng/mL, 2 Days at −20° C., Run 33, cholestyramine-treated human saliva, replicate): 7.42 ng/mL and 8.04 ng/mL and 8.12 ng/mL and 7.83 ng/mL | Mean concentration QC-Mid ([1]; nominal 8.00 ng/mL, 2 Days at −20° C., n 4): 7.85 ng/mL | % Bias QC-High [1, 19]: −3.3% | % CV QC-High [1, 19]: 2.9% | Concentration QC-High ([1]; nominal 80.0 ng/mL, 1 Day at −20° C., Run 33, cholestyramine-treated human saliva, replicate): 78.3 ng/mL and 79.8 ng/mL and 74.6 ng/mL and 76.6 ng/mL | Mean concentration QC-High ([1]; nominal 80.0 ng/mL, 1 Day at −20° C., n 4): 77.3 ng/mL | % Bias QC-High [1, 20]: −3.8% | % CV QC-High [1, 20]: 3.9% | Concentration QC-High ([1]; nominal 80.0 ng/mL, 2 Days at −20° C., Run 33, cholestyramine-treated human saliva, replicate): 74.4 ng/mL and 78.6 ng/mL and 74.5 ng/mL and 80.3 ng/mL | Mean concentration QC-High ([1]; nominal 80.0 ng/mL, 2 Days at −20° C., n 4): 77.0 ng/mL | Fresh QCs (Batch 34) Mean at Time Zero, QC-High ([2]; reference for −20° C. Storage, untreated human saliva): 84.5 ng/mL | Fresh QCs (Batch 34) Mean at Time Zero, QC-High ([2]; reference for −80° C. Storage, untreated human saliva): 84.5 ng/mL | % Bias QC-High ([2]; −20° C. Storage, 1 month): 1.0% | % CV QC-High ([2]; −20° C. Storage, 1 month): 2.5% | Difference from Fresh (%) QC-High ([2]; −20° C. Storage, 1 month): −4.3% | Mean concentration QC-High ([2]; −20° C. Storage, 1 month, n 3): 80.8 ng/mL | Concentration QC-High ([2]; −20° C. Storage, 1 month, untreated human saliva, Run 35, replicate): 79.1 ng/mL and 83.0 ng/mL and 80.4 ng/mL | % Bias QC-High ([2]; −80° C. Storage, 1 month): 1.0% | % CV QC-High ([2]; −80° C. Storage, 1 month): 4.7% | Difference from Fresh (%) QC-High ([2]; −80° C. Storage, 1 month): −4.3% | Mean concentration QC-High ([2]; −80° C. Storage, 1 month, n 3): 80.8 ng/mL | Concentration QC-High ([2]; −80° C. Storage, 1 month, untreated human saliva, Run 35, replicate): 84.4 ng/mL and 81.2 ng/mL and 76.9 ng/mL

C[C@H](CCC(=O)NCCS(=O)(=O)O)[C@H]1CC[C@H]2[C@@H]3CC[C@@H]4C[C@H](O)CC[C@]4(C)[C@H]3C[C@H](O)[C@]12C [Taurodeoxycholic Acid, Taurodeoxycholic acid]
Short-term stability in cholestyramine-treated human saliva ([1]; human): up to 2 days | Stability in Treated Human Saliva ([1]; human): 2 days | % Bias [1, 21]: −1.3% | Concentration, Mean [1, 21]: 79.0 ng/mL | Concentration [1, 21]: 78.6 ng/mL and 82.0 ng/mL and 76.9 ng/mL and 78.5 ng/mL | % Bias [1, 22]: 10.3% | Concentration, Mean [1, 22]: 0.551 ng/mL | Concentration [1, 22]: 0.539 ng/mL and 0.570 ng/mL and 0.536 ng/mL and 0.560 ng/mL | % Bias [1, 23]: −2.5% | Concentration, Mean [1, 23]: 7.80 ng/mL | Concentration [1, 23]: 7.71 ng/mL and 7.90 ng/mL and 7.81 ng/mL and 7.77 ng/mL | % Bias [1, 24]: −4.4% | Concentration, Mean [1, 24]: 76.5 ng/mL | Concentration [1, 24]: 73.7 ng/mL and 76.5 ng/mL and 76.2 ng/mL and 79.5 ng/mL | % Bias [1, 25]: 17.2% | Concentration, Mean [1, 25]: 0.586 ng/mL | Concentration [1, 25]: 0.596 ng/mL and 0.592 ng/mL and 0.555 ng/mL and 0.601 ng/mL | % Bias [1, 26]: −2.9% | Concentration, Mean [1, 26]: 7.77 ng/mL | Concentration [1, 26]: 7.19 ng/mL and 8.02 ng/mL and 8.13 ng/mL and 7.72 ng/mL | % Bias QC-High [2, 9]: −4.7% | % CV QC-High [2, 9]: 3.5% | Difference from Fresh (%) QC-High [2, 9]: −5.5% | Mean concentration QC-High [2, 9]: 76.2 ng/mL | Concentration QC-High [2, 10]: 73.7 ng/mL and 79.0 ng/mL and 76.0 ng/mL | % Bias QC-High [2, 11]: −2.7% | % CV QC-High [2, 11]: 4.4% | Difference from Fresh (%) QC-High [2, 11]: −3.6% | Mean concentration QC-High [2, 11]: 77.8 ng/mL | Concentration QC-High [2, 12]: 80.2 ng/mL and 79.4 ng/mL and 73.9 ng/mL | Long-term stability in untreated human saliva ([2]; at 80° C. (sic)): up to 1 month | Stability in Untreated Human Saliva ([2]; at −20° C.): 1 Month | Stability in Untreated Human Saliva ([2]; at −80° C.): 1 Month | Fresh QCs (Batch 34) Mean at Time Zero, QC-High [2, 13]: 80.7 ng/mL | Fresh QCs (Batch 34) Mean at Time Zero, QC-High [2, 14]: 80.7 ng/mL

C[C@H](CCC(=O)O)[C@H]1CC[C@H]2[C@@H]3CC[C@@H]4C[C@H](O)CC[C@]4(C)[C@H]3CC[C@]12C [Lithocholic Acid, Lithocholic acid]
Short-term stability in cholestyramine-treated human saliva ([1]; human): up to 2 days | Stability in Treated Human Saliva ([1]; human): 2 days
